We go through 6 substances from patent US12661382B2, “Method for obtaining oleocanthal type secoiridoids and for producing respective pharmaceutical preparations” (OMPHAX SA, priority 2019, dated 2026).

The series can be described thus: water solubility. Type of series: physicochemical.

As for S-(E)-oleaceinediol [Substance 8], the “water solubility with respect to substances (1-6)” value is listed as “greatly increased water solubility”. With 5S-(E)-oleomissionadiol [Substance 9], the “water solubility with respect to substances (1-6)” value is on record as “greatly increased water solubility”. With 5S-(E)-oleokoronadiol [Substance 10] the entry was “greatly increased water solubility”; with oleuropeinediol [Substance 11], “greatly increased water solubility”; with S-(E)-oleocanthadiol [Substance 7], “greatly increased water solubility”. With ligstrodiol [Substance 12] the entry was “greatly increased water solubility”.
